# Measured values published in US20070104787A1, “Carboxyalkyl cellulose esters for sustained delivery of pharmaceutically active substances” (priority 2005, published 2007).
# Legend:
# [1] = USP #2 paddle dissolution test: release of active in pH 1.2 or pH 6.8 buffer; assay type: physicochemical; settings: for total release of active (in words): CMCAB tablets (Formulations E17, E18, E20), pH 1.2
# Experimental: The dissolution tests were done using a USP #2 calibrated apparatus Varian VK 7000 with Teflon paddles. The pills were added to 900 ml of USP 1.2 pH buffer or to 900 ml of USP pH 6.8 buffer. The buffer solutions had each been degassed at 41° C. through a 0.45 micron hydrophilic polypropylene filter and held under vacuum for an additional 5 minutes. After the solutions were added to the dissolution vessels, the solutions were held at 37.3° C. in the water bath for 30 minutes to achieve constant temperature, prior to the addition of the tablets. The tablets were weighted down with a Varian 3-pronged capsule weight. At the beginning of each run, the tablets were allowed to sink to the bottom of the 1000 ml vessel, the stirrers were turned on at 50 rpm and samples taken as a function of time, using polypropylene syringes. The samples were filtered through 0.45 micron filters and immediately analyzed for the amount of aspirin in the solution. The wavelength for measuring the amount of aspirin (salicylic acid acetate) at pH 1.2 was 279 nm, which was the wavelength for equivalent molar absorptivities for both salicylic acid and aspirin using a Varian UV-VIS Spectrophotometer and quartz absorption cells. Similarly, the wavelength used to measure the concentration of the aspirin in pH 6.8 buffer was 267 nm, which was the wavelength where the molar absorptivity for salicylic acid and aspirin are equivalent at pH 6.8. This allowed accurate measurement of the release rate profile without having to worry about the degradation of the aspirin to salicylic acid with time. Each set of experiments had appropriate standards for reference for quantitative analysis. In the cases where the samples contained Vitamin E-TPGS, HPLC with UV detection was done to analyze for aspirin and salicylic acid.
# 6.0069 g CMCAB was mixed with 1.4937 g Fexofenadine HCl and 10.7693 g ethanol. The clear solution was allowed to dry into a clear film. The amorphous compatible film was then ground in a SPEX™ liquid nitrogen Freezer Mill for 6 minutes at 75% maximum speed. Torpac Inc. #2 Gelatin capsules were filled with the powdered polymer blend and tested using a Varian VK7000 USP II dissolution device at pH 1.2 and pH 6.8. The dissolution results are shown in FIG. 24, which is a plot of fexofenadine released from CMCAB solid dispersion (y-axis) versus time (minutes, x-axis) for Formulation E24 in Example 4. […] By varying the way the carboxyalkyl cellulose ester is mixed with the active, the rate of release can be varied so that one can achieve near zero order release of the active over a long period of time.
# [2] = cited from earlier work
"pH dependence of release ([1]; CMCAB tablet (Formulation E22), pH 1.2 versus pH 6.8)",duration of near zero order release ([1]; CMCAB tablet at 25% active (Formulation E22)),total release of active (in words) [1],Compound,water solubility [2]
little pH dependence,up to 500 minutes,,OC(Cn1cncn1)(Cn1cncn1)c1ccc(F)cc1F [fluconazole],highly water soluble
,,low total release,Cc1nnc(NS(=O)(=O)c2ccc(N)cc2)s1 [sulfamethizole],
,,low total release,CC(C)Cc1ccc(C(C)C(=O)O)cc1 (stereo not drawn) [ibuprofen],
,,low total release,COc1cc(Cc2cnc(N)nc2N)cc(OC)c1OC [trimethoprim],
